# Assay results reported in patent US5955423A (priority 1995, dated 1999).
# Like-named read-outs stand apart in the source and are kept apart here.
# Experiments:
# [1] = system: A-10 rat aortic smooth muscle cells; format: cell-based; details: A-10 cells
# Experimental: A-10 cells were grown to near-confluency on glass coverslips in BME/10% FBS. Compounds in PBS were added to the indicated final concentrations and cells were incubated for an additional 24 hours. For the staining of microtubules and intermediate filaments, the cells were fixed with cold methanol and incubated with PBS containing 10% calf serum to block nonspecific binding sites. Cells were then incubated at 37° C. for 60 min with either monoclonal anti-p-tubulin or with monoclonal anti-vimentin at dilutions recommended by the manufacturer. Bound primary antibodies were subsequently visualized by a 45-minute incubation with fluorescein-conjugated rabbit antimouse IgG. The coverslips were mounted on microscope slides and the fluorescence patterns were examined and photographed using a Zeiss Photomicroscope Ill equipped with epifluorescence optics for fluorescein. […] PBS containing 100 nM TRITC-phalloidin was then added and the mixture was allowed to incubate for 45 min at 37° C. The cells were washed rapidly three times with PBS before the coverslips were mounted and immediately photographed as described above.
# After 24 hours, microtubules and vimentin intermediate filaments were visualized by indirect immunofluorescence and microfilaments were stained using TRITC-phalloidin. The morphological effects of each drug were examined.
# After 24 hours, microtubule organization was examined by immunofluorescence as described above.
# The cells were then washed and incubated in drug-free medium for periods of 1 hour or 24 hours.
# [2] = system: KB (human nasopharyngeal carcinoma) cell line; experiment: Cytotoxicity against KB cell line; format: cell-based
# [3] = system: Panc 03 (pancreatic ductal adenocarcinoma #03, P03); details: SC P03
# Experimental: (§1) Gross log kill is defined as T-C/3.2 Td where T is the median time in days for the tumors of the treated group to reach 750 mg, C is the median time in days for the tumors of the control group to reach 750 mg, and Td is the tumor volume doubling time.
# [4] = system: murine and human tumors implanted in mice
# Experimental: as §1
# [5] = system: SKOV3 (human ovarian carcinoma) cell line; experiment: Cytotoxicity against SKOV3 cell line; details: Table 2
# [6] = system: LoVo (human colon-carcinoma) cell line; experiment: Cytotoxicity against LoVo cell line; format: cell-based
# [7] = system: murine leukemia (L1210 or P388), murine solid tumor, human solid tumor and low malignancy fibroblast (LML) cells; details: for Differential in Zone Units, Corbett Assay: μg/disk as for E3; for Type of Cytotoxicity, Corbett Assay: μg/disk: 1 12.5, 2 25, 3 25, 4 20, 5 2.9, 6 250, 8 30, 5-FU 2.5, VP-16 5, taxol 0.2, ^c selective against drug-sensitive and drug-resistant cell lines, ^d drug-sensitive cell lines only
# [8] = system: Colon 38 (colon adenocarcinoma #38); details: SC C38
# Experimental: as §1
# [9] = system: Colon 51 (colon adenocarcinoma #51); experiment: In vivo activity, SC Colon 51 tumor; details: Exp # 1900, 9 inj. IV, 67.5 mg/kg TD
# Experimental: as §1
# [10] = system: Mam 16/C (mammary #16/C); experiment: In vivo activity, SC Mam 16/C tumor; details: Exp # 1885, 7 inj. IV, 21.3 mg/kg TD
# Experimental: as §1
# [11] = system: SKOV3 cells (human ovarian carcinoma); experiment: Cell proliferation assay (SRB staining), SKOV3 cells; format: cell-based; details: SKOV3 cells treated 24 hours with IC50 doses, then drug-free medium
# [12] = 24 hours, 2 μM cytochalasin B, 100 nM vinblastine or 10 nM cryptophycin compounds
# [13] = Exp # 1843, 7 inj. IV, 23 mg/kg TD
# [14] = Exp # 1769, 15 inj. IV, 45 mg/kg TD
# [15] = Exp # 1887B, 6 inj. IV, 30 mg/kg TD
# [16] = Exp # 1825, 11 inj. IV, 106 mg/kg TD
# [17] = Exp # 1843, 4 inj. IV, 28/5 mg/kg TD
smiles,measurement,setting,value
"C=C1[C@@H](C)[C@H]2[C@H](Cc3ccccc3)NC(=O)[C@]23OC(=O)/C=C/[C@H](O)CCC[C@@H](C)C/C=C/[C@H]3[C@@H]1O [Cytochalasin B, cytochalasin B]",effect on microtubules,[1]; [12],did not affect the distribution of either microtubules or intermediate filaments
same,effect on vimentin intermediate filaments,[1]; [12],did not affect the distribution of either microtubules or intermediate filaments
COc1ccc(CC2NC(=O)CCCC(C(C)C3OC3c3ccccc3)OC(=O)C(CC(C)C)OC(=O)C(C)CNC2=O)cc1Cl (centres unmarked) [Cryptophycin 35],KB IC50,[2]; Table 2,0.055 ng/mL
same,% Body Wt. Loss at Nadir,[3]; [13],-2%
same,Cures,[3]; [13],0/5
same,Log Kill,[3]; [13],1.3
same,T/C,[3]; [13],11%
same,in vivo activity,[4]; the one trial that has been run to date,Good in vivo activity
same,SKOV3 IC50,[5],0.092 ng/mL
COc1ccc(C[C@H]2NC(=O)/C=C/C[C@@H]([C@H](C)[C@@H](O)[C@@H](Cl)c3ccccc3)OC(=O)[C@H](CC(C)C)OC(=O)[C@H](C)CNC2=O)cc1Cl [Cryptophycin 8],KB IC50,[2]; Table 1,0.0002 ng/mL
same,KB IC50,[2]; Table 2,0.01 ng/mL
same,LoVo IC50,[6]; Table 1,0.01 ng/mL
same,LoVo IC50,[6]; Table 2,0.0022 ng/mL
same,"Differential in Zone Units, Corbett Assay",[7],> 500 Zone Units
same,"Type of Cytotoxicity, Corbett Assay",[7],E/T
same,% Body Wt. Loss at Nadir,[8]; [14],-2%
same,Cures,[8]; [14],0/5
same,Cures,[8]; [15],1/5
same,Log Kill,[8]; [15],2.8
same,T/C,[8]; [15],0%
same,% Body Wt. Loss at Nadir,[3]; [16],-6%
same,Cures,[3]; [16],0/5
same,Log Kill,[3]; [16],4.6
same,T/C,[3]; [16],4%
same,tumor burden T/C,[4]; all of the tumors tested to date,< 10%
same,lethal toxicity observed during testing,[4]; in vivo testing,attributed to leucopenia
same,gross log kill activity ratings,[4]; tumors implanted in mice,+++ to ++++
same,% Body Wt. Loss at Nadir,[9],-1%
same,Log Kill,[9],1.8
same,T/C,[9],7%
same,% Body Wt. Loss at Nadir,[10],-4.5%
same,Cures,[10],0/5
same,Log Kill,[10],2.5
same,T/C,[10],6%
same,SKOV3 IC50,[5],0.15 ng/mL
COc1ccc(C[C@H]2NC(=O)/C=C/C[C@@H]([C@H](C)/C=C/c3ccccc3)OC(=O)[C@H](CC(C)C)OC(=O)[C@H](C)CNC2=O)cc1Cl [Cryptophycin 3],KB IC50,[2]; Table 1,0.3 ng/mL
same,LoVo IC50,[6]; Table 1,0.5 ng/mL
same,LoVo IC50,[6]; Table 2,0.6 ng/mL
same,"Differential in Zone Units, Corbett Assay",[7],> 400 Zone Units
same,"Type of Cytotoxicity, Corbett Assay",[7],E/T
same,% Body Wt. Loss at Nadir,[3]; [17],-9%
same,Cures,[3]; [17],0/5
same,Log Kill,[3]; [17],< 1
same,T/C,[3]; [17],54%
same,SKOV3 IC50,[5],2.8 ng/mL
"CC(=O)O[C@H]1C(=O)[C@@]2(C)[C@H]([C@H](OC(=O)c3ccccc3)[C@]3(O)C[C@H](OC(=O)[C@H](O)[C@@H](NC(=O)c4ccccc4)c4ccccc4)C(C)=C1C3(C)C)[C@]1(OC(C)=O)CO[C@@H]1C[C@@H]2O [taxol, reference compound]",increase in cell number in the 24 hours following removal of the drug,[11],0.2- to 0.4 fold
same,"Differential in Zone Units, Corbett Assay",[7],≥ 400 Zone Units
same,"Type of Cytotoxicity, Corbett Assay",[7],M/H/T
CC[C@]1(O)C[C@@H]2CN(CCc3c([nH]c4ccccc34)[C@@](C(=O)OC)(c3cc4c(cc3OC)N(C)[C@H]3[C@@](O)(C(=O)OC)[C@H](OC(C)=O)[C@]5(CC)C=CCN6CC[C@]43[C@@H]65)C2)C1 [vinblastine],increase in cell number in the 24 hours following removal of the drug,[11],approximately 3 fold
same,reversibility of microtubule depolymerization after removal of drug,"[1]; 100 nM vinblastine or 10 nM cryptophycins for 24 hr, then drug-free medium 1 hour or 24 hours",complete morphological recovery by 24 hour
same,microtubule depolymerization after taxol pretreatment,"[1]; 3 hours 10 μM taxol, then 100 nM vinblastine or 10 nM cryptophycin compound, 24 hours",pretreatment with taxol prevented microtubule depolymerization in response to vinblastine
same,effect on microfilaments,[1]; [12],Neither compound affected microfilament organization
same,effect on vimentin intermediate filaments,[1]; [12],vimentin intermediate filaments collapsed
